According to patent US11077126B2 (priority 2017, dated 2021):

Test system: mouse bone marrow polychromatic erythrocytes
Settings: NIH mice, cyclophosphamide 60 mg/kg positive control
Experimental: It is the object to test the mutagenic potential of drugs on mammalian somatic cells, and provide a basis for clinical drug use.
An appropriate amount of 0.5% sodium carboxymethyl cellulose solution was added to prepare a suspension, and the suspension was stored in a refrigerator at 4° C. The negative control was an equal amount of 0.5% sodium carboxymethylcellulose solution. The positive control was prepared as follows: an appropriate amount of cyclophosphamide used for injection was weighed, and was dissolved in normal saline at the time of use to prepare 60 mg/kg of solution.
6 mice per group. The doses, number of administrations, and bone marrow sampling time are selected in the pre-test.
The dose is reduced by ½ LD50 as the standard, and the number of administrations is one time. According to the pre-test results, the bone marrow sampling time is to sample 24 hours after administration.
At least three dose groups, respectively: 2,000 mg/kg, 1,000 mg/kg, 500 mg/kg
The number of administrations: one-time oral administration.
Oral (Intragastric) administration.
2.4.3 Bone marrow sampling time: 24 hours after administration.
The mice were sacrificed by cervical dislocation. Then the sternums were taken to remove the muscles thereon and the attachments were wiped with a gauze. Direct smear of bone marrow was used: the sternums were cut to expose the medullary cavity, and bone marrow was extruded and mixed well with a drop of calf serum on a slide beforehand as a push piece. After being dried, the slide was fixed in methanol for 10 minutes, and then after it was dried, it was then subjected to Giemsa staining. Each mouse was microscopically examined for about 1,000 polychromatic erythrocytes with intact contours of erythrocytes, and the frequency of occurrence of micronuclei and the ratio of polychromatic erythrocytes to erythrocytes were counted.

## O=P1(N(CCCl)CCCl)NCCCO1 (centres unmarked) [Cyclophosphamide]
  micronucleus rate relative to the negative control group: 16.85 times
P<0.01
  micronuclei of polychromatic erythrocytes compared with the negative control group: very significant increase
